Experimental data from patent US9434711B2 (Janssen Pharmaceutica, NV, priority 2007, dated 2016).

Target: canine TRPM8 (Canis lupus familiaris, UniProt Q1A7N1)
Experiment: In Vitro Canine TRPM8 Functional Assay (Ca2+ fluorescence, icilin activation)
Type: cell-based
Conditions: for inhibition at 0.2 µM / % Inh @ 0.2 (μM): compound at 0.2 μM, canine TRPM8, icilin activation; for inhibition at 0.2 µM: read-out: % Inh @ 0.2; for IC50: HEK293 cells stably expressing canine TRPM8, icilin activation, eight-point dose-response, read-out: IC50
Method in brief: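 HEK293 cells stably expressing canine TRPM8 were loaded with Calcium 3 dye (35 min at 37 °C, then 25 min at room temperature). Compound was added and Ca2+ fluorescence was read for 5 min before icilin at a concentration giving about 80% maximal response. EC50/IC50 came from eight-point dose-response curves, quadruplicate wells.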

Chain of canine TRPM8 (Q1A7N1 1-1104): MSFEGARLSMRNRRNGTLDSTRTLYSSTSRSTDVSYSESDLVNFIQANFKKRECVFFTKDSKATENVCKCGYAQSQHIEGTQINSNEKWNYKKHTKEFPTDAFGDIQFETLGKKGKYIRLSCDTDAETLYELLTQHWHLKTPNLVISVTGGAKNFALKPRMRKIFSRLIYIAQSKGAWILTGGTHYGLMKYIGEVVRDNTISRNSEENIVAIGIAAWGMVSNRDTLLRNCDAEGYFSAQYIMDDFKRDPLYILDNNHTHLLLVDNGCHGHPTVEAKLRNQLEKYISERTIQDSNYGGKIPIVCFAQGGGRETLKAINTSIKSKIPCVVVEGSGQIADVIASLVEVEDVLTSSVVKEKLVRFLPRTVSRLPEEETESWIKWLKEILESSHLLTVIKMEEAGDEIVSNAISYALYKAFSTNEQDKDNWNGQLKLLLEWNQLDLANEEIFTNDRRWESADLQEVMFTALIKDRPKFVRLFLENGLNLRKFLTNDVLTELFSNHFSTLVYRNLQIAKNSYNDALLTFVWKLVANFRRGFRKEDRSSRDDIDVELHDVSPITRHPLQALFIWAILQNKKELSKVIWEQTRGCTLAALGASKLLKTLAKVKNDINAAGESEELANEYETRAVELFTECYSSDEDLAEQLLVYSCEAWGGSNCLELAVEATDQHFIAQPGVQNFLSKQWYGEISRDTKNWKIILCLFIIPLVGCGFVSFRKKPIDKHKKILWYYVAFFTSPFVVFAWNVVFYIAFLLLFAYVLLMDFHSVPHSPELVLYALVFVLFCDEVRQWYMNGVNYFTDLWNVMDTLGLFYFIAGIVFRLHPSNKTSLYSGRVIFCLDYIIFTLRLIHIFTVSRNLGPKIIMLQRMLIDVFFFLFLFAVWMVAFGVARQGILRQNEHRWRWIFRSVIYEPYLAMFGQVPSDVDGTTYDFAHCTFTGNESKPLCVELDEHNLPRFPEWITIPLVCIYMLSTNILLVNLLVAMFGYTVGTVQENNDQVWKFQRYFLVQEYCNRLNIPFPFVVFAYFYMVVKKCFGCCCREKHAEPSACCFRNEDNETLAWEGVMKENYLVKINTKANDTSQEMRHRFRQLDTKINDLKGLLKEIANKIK

| inhibition at 0.2 µM | IC50 | Structure (SMILES) | % Inh @ 0.2 (μM) |
| --- | --- | --- | --- |
| 69% | – | CCCCN(c1sc2ccccc2c1Br)S(=O)(=O)c1ccc(-c2noc(=S)[nH]2)cc1 [Compound 481, N-(3-Bromo-benzo[b]thiophen-2-yl)-N-(butyl)-4-(5-thioxo-4,5-dihydro-[1,2,4]oxadiazol-3-yl)-benzenesulfonamide] | – |
| – | 24 nM | N/C(=N\O)c1ccc(S(=O)(=O)N(Cc2ccc(F)c(C(F)(F)F)c2)c2cc3ccccc3s2)cc1 [Compound 482, N-(Benzo[b]thiophen-2-yl)-N-(4-fluoro-3-trifluoromethyl-benzyl)-4-N-hydroxy-benzamidinesulfonamide] | 100% |
| 101% | 9 nM | O=c1[nH]c(-c2ccc(S(=O)(=O)N(Cc3ccc(F)c(C(F)(F)F)c3)c3cc4ccccc4s3)cc2)no1 [Compound 483, N-(Benzo[b]thiophen-2-yl)-N-(4-fluoro-3-trifluoromethyl-benzyl)-4-(5-oxo-4,5-dihydro-[1,2,4]oxadiazol-3-yl)-benzenesulfonamide] | – |
| 100% | – | Cc1c(N(Cc2ccccc2)S(=O)(=O)c2ccc(C(=O)O)cc2)sc2ccccc12 [Compound 486, N-(3-Methyl-benzo[b]thiophen-2-yl)-N-(benzyl)-4-carboxy-benzenesulfonamide] | – |
| 101% | 1 nM | Cc1c(N(Cc2cccc(C(F)(F)F)c2)S(=O)(=O)c2ccc(C(=O)O)cc2)sc2ccccc12 [Compound 491, N-(3-Methyl-benzo[b]thiophen-2-yl)-N-(3-trifluoromethyl-benzyl)-4-carboxy-benzenesulfonamide] | – |
| 101% | 0.8 nM | Cc1c(N(Cc2c(F)c(F)c(F)c(F)c2F)S(=O)(=O)c2ccc(C(=O)O)cc2)sc2ccccc12 [Compound 493, N-(3-Methyl-benzo[b]thiophen-2-yl)-N-(2,3,4,5,6-pentafluoro-benzyl)-4-carboxy-benzenesulfonamide] | – |
| – | 55 nM | Cc1c(N(Cc2cccnc2)S(=O)(=O)c2ccc(C(=O)O)cc2)sc2ccccc12 [Compound 495, N-(3-Methyl-benzo[b]thiophen-2-yl)-N-(pyridin-3-ylmethyl)-4-carboxy-benzenesulfonamide] | 98% |
| 41% | – | O=[N+]([O-])c1ccc(S(=O)(=O)N(CCC(F)(F)F)c2cc3ccccc3s2)cc1 [Compound 498, N-(Benzo[b]thiophen-2-yl)-4-nitro-N-(3,3,3-trifluoro-propyl)-benzenesulfonamide] | – |
| 101% | 15 nM | Nc1ccc(S(=O)(=O)N(CCC(F)(F)F)c2cc3ccccc3s2)cc1 [Compound 499, 4-Amino-N-(benzo[b]thiophen-2-yl)-N-(3,3,3-trifluoro-propyl)-benzenesulfonamide] | – |
| 15% | – | CCCCN(c1sc2ccccc2c1NC(C)=O)S(=O)(=O)c1ccc(C(=O)OC)cc1 [Compound 500, N-(3-Acetylamino-benzo[b]thiophen-2-yl)-N-(butyl)-4-carbomethoxy-benzenesulfonamide] | – |
| 100% | 10 nM | O=C(O)c1ccc(S(=O)(=O)N(Cc2ccc(F)c(C(F)(F)F)c2)c2sc3ccccc3c2C2CCCC2)cc1 [Compound 502, N-(3-Cyclopentyl-benzo[b]thiophen-2-yl)-N-(4-fluoro-3-trifluoromethyl-benzyl)-4-carboxy-benzenesulfonamide] | – |
| 96% | 47 nM | CCCCN(c1sc2ccccc2c1C(C)=O)S(=O)(=O)c1ccc(Br)cc1 [Compound 503, N-(3-Acetyl-benzo[b]thiophen-2-yl)-N-(butyl)-4-bromo-benzenesulfonamide] | – |
| 101% | 18 nM | COC(=O)c1ccc(S(=O)(=O)N(CCC(F)(F)F)c2sc3ccccc3c2C(C)(C)O)cc1 [Compound 504, N-(3-(1-Hydroxy-1-methyl-ethyl)-benzo[b]thiophen-2-yl)-N-(3,3,3-trifluoro-propyl)-4-carbomethoxy-benzenesulfonamide] | – |
| 100% | 31 nM | CCCCN(c1sc2ccccc2c1C(C)(C)O)S(=O)(=O)c1ccc(Br)cc1 [Compound 506, N-(Butyl)-N-(3-(1-hydroxy-1-methyl-ethyl)-benzo[b]thiophen-2-yl)-4-bromo-benzenesulfonamide] | – |
| 92% | 34 nM | CS(=O)(=O)Nc1ccc(S(=O)(=O)N(CCC(F)(F)F)c2cc3ccccc3s2)cc1 [Compound 507, N-(Benzo[b]thiophen-2-yl)-4-methanesulfonylamino-N-(3,3,3-trifluoro-propyl)-benzenesulfonamide] | – |
| 47% | – | CS(=O)(=O)Nc1c(N(Cc2ccc(F)c(C(F)(F)F)c2)S(=O)(=O)c2ccccc2)sc2ccccc12 [Compound 508, N-(4-Fluoro-3-trifluoromethyl-benzyl)-N-(3-methanesulfonylamino-benzo[b]thiophen-2-yl)-benzenesulfonamide] | – |
| 100% | 32 nM | CC(=O)Nc1c(N(Cc2ccc(F)c(C(F)(F)F)c2)S(=O)(=O)c2ccccc2)sc2ccccc12 [Compound 509, N-{2-[Benzenesulfonyl-(4-fluoro-3-trifluoromethyl-benzyl)-amino]-benzo[b]thiophen-3-yl}-acetamide] | – |
| 102% | 11 nM | Cc1c(N(Cc2ccc(F)c(C(F)(F)F)c2)S(=O)(=O)CCC(=O)O)sc2ccccc12 [Compound 510, N-(4-Fluoro-3-trifluoromethyl-benzyl)-N-(3-methyl-benzo[b]thiophen-2-yl)-2-carboxy-ethanesulfonamide] | – |
| 101% | 3 nM | O=c1[nH]c(-c2ccc(S(=O)(=O)N(Cc3ccc(F)c(C(F)(F)F)c3)c3sc4ccccc4c3Br)cc2)no1 [Compound 511, N-(3-Bromo-benzo[b]thiophen-2-yl)-N-(4-fluoro-3-trifluoromethyl-benzyl)-4-(5-oxo-4,5-dihydro-[1,2,4]oxadiazol-3-yl)-benzenesulfonamide] | – |
| 102% | 4 nM | O=c1[nH]c(-c2ccc(S(=O)(=O)N(Cc3ccc(F)c(C(F)(F)F)c3)c3sc4ccccc4c3Cl)cc2)no1 [Compound 512, N-(3-Chloro-benzo[b]thiophen-2-yl)-N-(4-fluoro-3-trifluoromethyl-benzyl)-4-(5-oxo-4,5-dihydro-[1,2,4]oxadiazol-3-yl)-benzenesulfonamide] | – |
| 101% | 21 nM | O=c1[nH]c(-c2ccc(S(=O)(=O)N(CCCC(F)(F)F)c3cc4ccccc4s3)cc2)no1 [Compound 513, N-(Benzo[b]thiophen-2-yl)-N-(4,4,4-trifluoro-butyl)-4-(5-oxo-4,5-dihydro-[1,2,4]oxadiazol-3-yl)-benzenesulfonamide] | – |
| 100% | 46 nM | O=c1[nH]c(-c2ccc(S(=O)(=O)N(CCCC(F)(F)F)c3sc4ccccc4c3Br)cc2)no1 [Compound 514, N-(3-Bromo-benzo[b]thiophen-2-yl)-N-(4,4,4-trifluoro-butyl)-4-(5-oxo-4,5-dihydro-[1,2,4]oxadiazol-3-yl)-benzenesulfonamide] | – |
| 102% | 19 nM | CCCCN(c1sc2ccccc2c1C(C)(C)O)S(=O)(=O)c1ccc(C(=O)OC)cc1 [Compound 516, N-(Butyl)-N-(3-(1-hydroxy-1-methyl-ethyl)-benzo[b]thiophen-2-yl)-4-carbomethoxy-benzenesulfonamide] | – |
| 102% | 2 nM | Cc1c(N(Cc2cc(F)c(F)c(F)c2)S(=O)(=O)c2ccc(C(=O)O)cc2)sc2ccccc12 [Compound 517, N-(3-Methyl-benzo[b]thiophen-2-yl)-N-(3,4,5-trifluoro-benzyl)-4-carboxy-benzenesulfonamide] | – |
| 101% | 0.7 nM | Cc1c(N(Cc2ccc(C(F)(F)F)cc2)S(=O)(=O)c2ccc(C(=O)O)cc2)sc2ccccc12 [Compound 518, N-(3-Methyl-benzo[b]thiophen-2-yl)-N-(4-trifluoromethyl-benzyl)-4-carboxy-benzenesulfonamide] | – |
| 102% | 6 nM | Cc1c(N(Cc2cc(C(F)(F)F)ccc2F)S(=O)(=O)c2ccc(C(=O)O)cc2)sc2ccccc12 [Compound 519, N-(3-Methyl-benzo[b]thiophen-2-yl)-N-(2-fluoro-5-trifluoromethyl-benzyl)-4-carboxy-benzenesulfonamide] | – |
| 102% | – | Cc1c(N(Cc2cc(Cl)ccc2Cl)S(=O)(=O)c2ccc(C(=O)O)cc2)sc2ccccc12 [Compound 520, N-(3-Methyl-benzo[b]thiophen-2-yl)-N-(2,5-dichloro-benzyl)-4-carboxy-benzenesulfonamide] | – |

| Structure (SMILES) | inhibition at 0.2 µM | IC50 | % Inh @ 0.2 (μM) |
| --- | --- | --- | --- |
| CCCCN(c1sc2ccccc2c1Br)S(=O)(=O)c1ccc(C2=NOS(=O)N2)cc1 (centres unmarked) [Compound 484, N-(3-Bromo-benzo[b]thiophen-2-yl)-N-(butyl)-4-(3H-[1,2,3,5]oxathiadiazole-2-oxide)-benzenesulfonamide] | – | 21 nM | 100% |
| CCCCN(c1sc2ccccc2c1Cl)S(=O)(=O)c1ccc(C2=NOS(=O)N2)cc1 (centres unmarked) [Compound 485, N-(3-Chloro-benzo[b]thiophen-2-yl)-N-(butyl)-4-(3H-[1,2,3,5]oxathiadiazole-2-oxide)-benzenesulfonamide] | – | 21 nM | 96% |
| Cc1c(N(Cc2ccc(S(C)(=O)=O)cc2)S(=O)(=O)c2ccc(C(=O)O)cc2)sc2ccccc12 [Compound 492, N-(3-Methyl-benzo[b]thiophen-2-yl)-N-(4-methylsulfone-benzyl)-4-carboxy-benzenesulfonamide] | – | 62 nM | 91% |
| Cc1c(N(Cc2ccc(S(=O)(=O)C(F)(F)F)cc2)S(=O)(=O)c2ccc(C(=O)O)cc2)sc2ccccc12 [Compound 494, N-(3-Methyl-benzo[b]thiophen-2-yl)-N-(4-trifluoromethylsulfone-benzyl)-4-carboxy-benzenesulfonamide] | – | 0.9 nM | 101% |
